Assay results from ChEMBL document CHEMBL3797178, “Synthesis, antimycobacterial and antibacterial activity of 1-(6-amino-3,5-difluoropyridin-2-yl)fluoroquinolone derivatives containing an oxime functional moiety” (2016).
In brackets after ≈: the same amount, converted by molar mass.

Tests used:
Assay type in all cases: functional
[1] = system: Enterococcus faecalis; test: Antibacterial activity against Enterococcus faecalis 14-3 after 18 to 24 hrs by CLSI M100-S11 method
[2] = system: Pseudomonas aeruginosa; test: Antibacterial activity against Pseudomonas aeruginosa 14-15 after 18 to 24 hrs by CLSI M100-S11 method
[3] = system: Escherichia coli; test: Antibacterial activity against extended-spectrum beta-lactamase-producing Escherichia coli 14-2 after 18 to 24 hrs by CLSI M100-S11 method
[4] = system: Staphylococcus aureus; test: Antibacterial activity against methicillin-sensitive Staphylococcus aureus 14-4 after 18 to 24 hrs by CLSI M100-S11 method
[5] = system: Escherichia coli; test: Antibacterial activity against Escherichia coli ATCC 25922 after 18 to 24 hrs by CLSI M100-S11 method
[6] = system: Staphylococcus aureus; test: Antibacterial activity against Staphylococcus aureus CMCC 26003 after 18 to 24 hrs by CLSI M100-S11 method
[7] = system: Pseudomonas aeruginosa; test: Antibacterial activity against Pseudomonas aeruginosa ATCC 27853 after 18 to 24 hrs by CLSI M100-S11 method
[8] = system: Escherichia coli; test: Antibacterial activity against extended-spectrum beta-lactamase-producing Escherichia coli 14-1 after 18 to 24 hrs by CLSI M100-S11 method
[9] = system: Staphylococcus aureus; test: Antibacterial activity against methicillin-sensitive Staphylococcus aureus 14-3 after 18 to 24 hrs by CLSI M100-S11 method
[10] = system: Pseudomonas aeruginosa; test: Antibacterial activity against Pseudomonas aeruginosa 14-19 after 18 to 24 hrs by CLSI M100-S11 method
[11] = system: Enterococcus faecium; test: Antibacterial activity against Enterococcus faecium 14-1 after 18 to 24 hrs by CLSI M100-S11 method
[12] = system: Klebsiella pneumoniae; test: Antibacterial activity against extended-spectrum beta-lactamase-producing Klebsiella pneumoniae 14-19 after 18 to 24 hrs by CLSI M100-S11 method
[13] = system: Pseudomonas aeruginosa; test: Antibacterial activity against Pseudomonas aeruginosa 14-9 after 18 to 24 hrs by CLSI M100-S11 method
[14] = system: Staphylococcus epidermidis; test: Antibacterial activity against methicillin-sensitive Staphylococcus epidermidis 14-2 after 18 to 24 hrs by CLSI M100-S11 method
[15] = system: Enterococcus faecalis; test: Antibacterial activity against Enterococcus faecalis 14-1 after 18 to 24 hrs by CLSI M100-S11 method
[16] = system: Staphylococcus aureus; test: Antibacterial activity against methicillin-resistant Staphylococcus aureus 14-5 after 18 to 24 hrs by CLSI M100-S11 method
[17] = system: Staphylococcus epidermidis; test: Antibacterial activity against methicillin-resistant Staphylococcus epidermidis 14-22 after 18 to 24 hrs by CLSI M100-S11 method
[18] = system: Enterococcus faecalis; test: Antibacterial activity against Enterococcus faecalis 14-2 after 18 to 24 hrs by CLSI M100-S11 method
[19] = system: Staphylococcus epidermidis; test: Antibacterial activity against methicillin-resistant Staphylococcus epidermidis 14-37 after 18 to 24 hrs by CLSI M100-S11 method
[20] = system: Mycobacterium tuberculosis; test: Antimycobacterial activity against Mycobacterium tuberculosis H37Rv ATCC 27294 after 3 days by microplate Alamar Blue assay; conditions: H37Rv ATCC 27294, 72 h
[21] = system: Streptococcus pneumoniae; test: Antibacterial activity against Streptococcus pneumoniae ATCC 19615 after 18 to 24 hrs by CLSI M100-S11 method
[22] = system: Pseudomonas aeruginosa; test: Antibacterial activity against Pseudomonas aeruginosa 14-14 after 18 to 24 hrs by CLSI M100-S11 method
[23] = system: Staphylococcus epidermidis; test: Antibacterial activity against methicillin-sensitive Staphylococcus epidermidis 14-6 after 18 to 24 hrs by CLSI M100-S11 method
[24] = system: Staphylococcus aureus; test: Antibacterial activity against methicillin-resistant Staphylococcus aureus 14-4 after 18 to 24 hrs by CLSI M100-S11 method
[25] = system: Staphylococcus epidermidis; test: Antibacterial activity against methicillin-resistant Staphylococcus epidermidis 14-39 after 18 to 24 hrs by CLSI M100-S11 method
[26] = system: Klebsiella pneumoniae; test: Antibacterial activity against Klebsiella pneumoniae 14-1 after 18 to 24 hrs by CLSI M100-S11 method
[27] = system: Staphylococcus aureus; test: Antibacterial activity against methicillin-sensitive Staphylococcus aureus 14-2 after 18 to 24 hrs by CLSI M100-S11 method
[28] = system: Pseudomonas aeruginosa; test: Antibacterial activity against Pseudomonas aeruginosa 14-16 after 18 to 24 hrs by CLSI M100-S11 method
[29] = system: Klebsiella pneumoniae; test: Antibacterial activity against Klebsiella pneumoniae 14-2 after 18 to 24 hrs by CLSI M100-S11 method
[30] = system: Escherichia coli; test: Antibacterial activity against Escherichia coli 14-1 after 18 to 24 hrs by CLSI M100-S11 method
[31] = system: Klebsiella pneumoniae; test: Antibacterial activity against extended-spectrum beta-lactamase-producing Klebsiella pneumoniae 14-17 after 18 to 24 hrs by CLSI M100-S11 method
[32] = system: Enterococcus faecium; test: Antibacterial activity against Enterococcus faecium 14-2 after 18 to 24 hrs by CLSI M100-S11 method
[33] = system: Klebsiella pneumoniae; test: Antibacterial activity against Klebsiella pneumoniae 14-4 after 18 to 24 hrs by CLSI M100-S11 method
[34] = system: Klebsiella pneumoniae; test: Antibacterial activity against extended-spectrum beta-lactamase-producing Klebsiella pneumoniae 14-18 after 18 to 24 hrs by CLSI M100-S11 method
[35] = system: Escherichia coli; test: Antibacterial activity against Escherichia coli 14-2 after 18 to 24 hrs by CLSI M100-S11 method
[36] = system: Klebsiella pneumoniae; test: Antibacterial activity against Klebsiella pneumoniae 14-3 after 18 to 24 hrs by CLSI M100-S11 method
[37] = system: Staphylococcus epidermidis; test: Antibacterial activity against methicillin-sensitive Staphylococcus epidermidis 14-4 after 18 to 24 hrs by CLSI M100-S11 method

Row | Compound | MIC [1] | MIC [2] | MIC [3] | MIC [4] | MIC [5] | MIC [6] | MIC [7] | MIC [8] | MIC [9] | MIC [10] | MIC [11] | MIC [12] | MIC [13] | MIC [14] | MIC [15] | MIC [16] | MIC [17] | MIC [18] | MIC [19] | MIC [20] | other results
1 | NC[C@@H]1/C(=N/OCc2ccccc2)CN1c1nc2c(cc1F)c(=O)c(C(=O)O)cn2-c1nc(N)c(F)cc1F | > 128 µg/mL | 128 µg/mL (≈ 237 µM) | > 128 µg/mL | 4 µg/mL (≈ 7.41 µM) | 8 µg/mL (≈ 14.8 µM) | 4 µg/mL (≈ 7.41 µM) | 128 µg/mL (≈ 237 µM) | 128 µg/mL (≈ 237 µM) | 8 µg/mL (≈ 14.8 µM) | 128 µg/mL (≈ 237 µM) | > 128 µg/mL | > 128 µg/mL | 128 µg/mL (≈ 237 µM) | > 128 µg/mL | > 128 µg/mL | > 128 µg/mL | > 128 µg/mL | > 128 µg/mL | > 128 µg/mL | > 32 µg/mL | MIC [21]: 64 µg/mL (≈ 119 µM); MIC [22]: 128 µg/mL (≈ 237 µM); MIC [23]: > 128 µg/mL; MIC [24]: > 128 µg/mL; MIC [25]: > 133 µg/mL; MIC [26]: > 128 µg/mL; MIC [27]: 4 µg/mL (≈ 7.41 µM); MIC [28]: 128 µg/mL (≈ 237 µM); MIC [29]: > 128 µg/mL; MIC [30]: > 128 µg/mL; MIC [31]: > 128 µg/mL; MIC [32]: 32 µg/mL (≈ 59.3 µM); MIC [33]: > 128 µg/mL; MIC [34]: 128 µg/mL (≈ 237 µM); MIC [35]: > 128 µg/mL; MIC [36]: > 128 µg/mL; MIC [37]: > 128 µg/mL
2 | CO/N=C1\CN(c2c(F)cc3c(=O)c(C(=O)O)cn(-c4nc(N)c(F)cc4F)c3c2Cl)CC1CN (stereo unspecified) | 32 µg/mL (≈ 62.6 µM) | 8 µg/mL (≈ 15.7 µM) | 64 µg/mL (≈ 125 µM) | 0.25 µg/mL (≈ 0.489 µM) | 0.125 µg/mL (≈ 0.245 µM) | 0.03 µg/mL (≈ 0.0587 µM) | 4 µg/mL (≈ 7.83 µM) | 2 µg/mL (≈ 3.91 µM) | 0.125 µg/mL (≈ 0.245 µM) | 8 µg/mL (≈ 15.7 µM) | > 128 µg/mL | 128 µg/mL (≈ 251 µM) | 8 µg/mL (≈ 15.7 µM) | 64 µg/mL (≈ 125 µM) | 16 µg/mL (≈ 31.3 µM) | 128 µg/mL (≈ 251 µM) | 64 µg/mL (≈ 125 µM) | 64 µg/mL (≈ 125 µM) | 64 µg/mL (≈ 125 µM) | 30.5 µg/mL (≈ 59.7 µM) | MIC [21]: 16 µg/mL (≈ 31.3 µM); MIC [22]: 8 µg/mL (≈ 15.7 µM); MIC [23]: 64 µg/mL (≈ 125 µM); MIC [24]: 128 µg/mL (≈ 251 µM); MIC [25]: 32 µg/mL (≈ 62.6 µM); MIC [26]: 64 µg/mL (≈ 125 µM); MIC [27]: 0.06 µg/mL (≈ 0.117 µM); MIC [28]: 8 µg/mL (≈ 15.7 µM); MIC [29]: > 128 µg/mL; MIC [30]: 64 µg/mL (≈ 125 µM); MIC [31]: 32 µg/mL (≈ 62.6 µM); MIC [32]: 8 µg/mL (≈ 15.7 µM); MIC [33]: 128 µg/mL (≈ 251 µM); MIC [34]: 16 µg/mL (≈ 31.3 µM); MIC [35]: 64 µg/mL (≈ 125 µM); MIC [36]: 128 µg/mL (≈ 251 µM); MIC [37]: 32 µg/mL (≈ 62.6 µM)
3 | CO/N=C1\CCN(c2c(F)cc3c(=O)c(C(=O)O)cn(-c4nc(N)c(F)cc4F)c3c2Cl)CC1N (stereo unspecified) | > 128 µg/mL | 64 µg/mL (≈ 125 µM) | > 128 µg/mL | 0.5 µg/mL (≈ 0.979 µM) | 1 µg/mL (≈ 1.96 µM) | 0.5 µg/mL (≈ 0.979 µM) | 16 µg/mL (≈ 31.3 µM) | 64 µg/mL (≈ 125 µM) | 0.25 µg/mL (≈ 0.489 µM) | 128 µg/mL (≈ 251 µM) | > 128 µg/mL | > 128 µg/mL | 64 µg/mL (≈ 125 µM) | > 128 µg/mL | > 128 µg/mL | > 128 µg/mL | > 128 µg/mL | > 128 µg/mL | > 128 µg/mL | > 32 µg/mL | MIC [21]: 64 µg/mL (≈ 125 µM); MIC [22]: 64 µg/mL (≈ 125 µM); MIC [23]: 128 µg/mL (≈ 251 µM); MIC [24]: > 128 µg/mL; MIC [25]: > 128 µg/mL; MIC [26]: > 128 µg/mL; MIC [27]: 0.5 µg/mL (≈ 0.979 µM); MIC [28]: 128 µg/mL (≈ 251 µM); MIC [29]: > 128 µg/mL; MIC [30]: > 128 µg/mL; MIC [31]: > 128 µg/mL; MIC [32]: 16 µg/mL (≈ 31.3 µM); MIC [33]: > 128 µg/mL; MIC [34]: 128 µg/mL (≈ 251 µM); MIC [35]: > 128 µg/mL; MIC [36]: > 128 µg/mL; MIC [37]: 128 µg/mL (≈ 251 µM)
